Experimental data: patent US11084800B2 (Achillion Pharmaceuticals, Inc., priority 2017, dated 2021)

Molecular target: Human Factor D (Homo sapiens (Human), UniProt P00746)
Experiment: Human Factor D Assay
Assay type: biochemical
Conditions: Factor D inhibition, assay of Example 10; read-out: IC5 (Stars)
In short: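 Thioester substrate Z-L-Lys-SBz (100 μM) with Ellman's reagent DTNB (100 μM) reports activity of 80 nM human serum-derived enzyme, kinetically at 405 nm over 30 min. Compound preincubated 5 min, room temperature, pH 7.5 Tris/1 M NaCl; IC50 by nonlinear fit of rates.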

Sequence of Human Factor D (P00746 26-253): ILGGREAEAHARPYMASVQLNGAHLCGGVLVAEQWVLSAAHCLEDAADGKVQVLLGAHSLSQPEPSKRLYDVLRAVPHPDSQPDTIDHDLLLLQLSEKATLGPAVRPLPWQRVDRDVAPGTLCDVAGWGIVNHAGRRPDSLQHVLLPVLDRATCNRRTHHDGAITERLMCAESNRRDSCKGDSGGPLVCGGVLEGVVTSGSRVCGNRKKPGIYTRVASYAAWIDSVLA

SMILES	IC50 [µM]
CC(=O)c1nn(CC(=O)N2[C@H](C(=O)Nc3cc(Br)ncc3F)C[C@@]3(C)C[C@@H]23)c2cnc(-c3cnc(C)nc3)cc12 [Compound 461, (1R,3S,5R)-2-(2-(3-acetyl-5-(2-methylpyrimidin-5-yl)-1H-pyrazolo[3,4-c]pyridin-1-yl)acetyl)-N-(2-bromo-5-fluoropyridin-4-yl)-5-methyl-2-azabicyclo[3.1.0]hexane-3-carboxamide]	1 to 10
CC(=O)c1nn(CC(=O)N2[C@H](C(=O)N[C@H](Cc3ccccc3)C(=O)O)C[C@@]3(C)C[C@@H]23)c2c(C)cc(-c3cnc(C)nc3)cc12 [Compound 462, ((1R,3S,5R)-2-(2-(3-acetyl-7-methyl-5-(2-methylpyrimidin-5-yl)-1H-indazol-1-yl)acetyl)-5-methyl-2-azabicyclo[3.1.0]hexane-3-carbonyl)-D-phenylalanine]	1 to 10
CC(=O)c1nn(CC(=O)N2[C@H](C(=O)N[C@H](CC(C)C)C(=O)O)C[C@@]3(C)C[C@@H]23)c2c(C)cc(-c3cnc(C)nc3)cc12 [Compound 464, ((1R,3S,5R)-2-(2-(3-acetyl-7-methyl-5-(2-methylpyrimidin-5-yl)-1H-indazol-1-yl)acetyl)-5-methyl-2-azabicyclo[3.1.0]hexane-3-carbonyl)-D-leucine]	1 to 10
Cc1ncc(-c2ccc3c(c2)c(C(=O)C(F)(F)F)cn3CC(=O)N2[C@H](C(=O)Nc3nc(Br)ccc3C)C[C@@]3(C)C[C@@H]23)cn1 [Compound 465, (1R,3S,5R)-N-(6-bromo-3-methylpyridin-2-yl)-5-methyl-2-(2-(5-(2-methylpyrimidin-5-yl)-3-(2,2,2-trifluoroacetyl)-1H-indol-1-yl)acetyl)-2-azabicyclo[3.1.0]hexane-3-carboxamide]	< 1
CC(=O)c1nn(CC(=O)N2[C@H](C(=O)Nc3nc(Br)ccc3C)C[C@@]3(C)C[C@@H]23)c2cc(F)c(-c3cnc(C)nc3)cc12 [Compound 466, (1R,3S,5R)-2-(2-(3-acetyl-6-fluoro-5-(2-methylpyrimidin-5-yl)-1H-indazol-1-yl)acetyl)-N-(6-bromo-3-methylpyridin-2-yl)-5-methyl-2-azabicyclo[3.1.0]hexane-3-carboxamide]	< 1
COC(=O)c1nn(CC(=O)N2[C@H](C(=O)Nc3nc(Br)ccc3C)C[C@@]3(C)C[C@@H]23)c2ccc(-c3cnc(C)nc3)cc12 [Compound 467, Methyl 1-{2-[(1R,3S,5R)-3-[(6-bromo-3-methylpyridin-2-yl)carbamoyl]-5-methyl-2-azabicyclo[3.1.0]hexan-2-yl]-2-oxoethyl}-5-(2-methylpyrimidin-5-yl)indazole-3-carboxylate]	< 1
Cc1ncc(-c2ccc3c(c2)c(C(=O)O)nn3CC(=O)N2[C@H](C(=O)Nc3nc(Br)ccc3C)C[C@@]3(C)C[C@@H]23)cn1 [Compound 469, 1-{2-[(1R,3S,5R)-3-[(6-Bromo-3-methylpyridin-2-yl)carbamoyl]-5-methyl-2-azabicyclo[3.1.0]hexan-2-yl]-2-oxoethyl}-5-(2-methylpyrimidin-5-yl)indazole-3-carboxylic Acid]	> 10
Cc1ncc(-c2cc3c(C(=O)C(F)(F)F)cn(CC(=O)N4[C@H](C(=O)Nc5nc(Br)ccc5C)C[C@@]5(C)C[C@@H]45)c3cn2)cn1 [Compound 470, (1R,3S,5R)-N-(6-bromo-3-methylpyridin-2-yl)-5-methyl-2-(2-(5-(2-methylpyrimidin-5-yl)-3-(2,2,2-trifluoroacetyl)-1H-pyrrolo[2,3-c]pyridin-1-yl)acetyl)-2-azabicyclo[3.1.0]hexane-3-carboxamide]	< 1
CC(=O)c1cn(CC(=O)N2[C@H](C(=O)Nc3nc(Br)c(F)cc3C)C[C@@]3(C)C[C@@H]23)c2c(C)nc(-c3cnc(C)nc3)cc12 [Compound 471]	< 1
CC(=O)c1cn(CC(=O)N2[C@H](C(=O)Nc3nc(Br)ccc3C)C[C@@]3(C)C[C@@H]23)c2c(C)nc(-c3cnc(C)nc3)cc12 [Compound 472, (1R,3S,5R)-2-(2-(3-Acetyl-7-methyl-5-(2-methylpyrimidin-5-yl)-1H-pyrrolo[2,3-c]pyridin-1-yl)acetyl)-N-(6-bromo-3-methylpyridin-2-yl)-5-methyl-2-azabicyclo[3.1.0]hexane-3-carboxamide]	< 1
CCNC(=O)c1nn(CC(=O)N2[C@H](C(=O)Nc3nc(Br)ccc3C)C[C@@]3(C)C[C@@H]23)c2ccc(-c3cnc(C)nc3)cc12 [Compound 474, 1-{2-[(1R,3S,5R)-3-[(6-Bromo-3-methylpyridin-2-yl)carbamoyl]-5-methyl-2-azabicyclo[3.1.0]hexan-2-yl]-2-oxoethyl}-N-ethyl-5-(2-methylpyrimidin-5-yl)indazole-3-carboxamide]	< 1
CC(=O)c1cn(CC(=O)N2[C@H](C(=O)Nc3nc(Br)ccc3C)C[C@@]3(C)C[C@@H]23)c2cc(F)c(-c3cnc(C)nc3)cc12 [Compound 482, (1R,3S,5R)-2-(2-(3-acetyl-6-fluoro-5-(2-methylpyrimidin-5-yl)-1H-indol-1-yl)acetyl)-N-(6-bromo-3-methylpyridin-2-yl)-5-methyl-2-azabicyclo[3.1.0]hexane-3-carboxamide]	< 1
CC(=O)c1c(C)n(CC(=O)N2[C@H](C(=O)Nc3nc(Br)ccc3C)C[C@@]3(C)C[C@@H]23)c2ccc(-c3cnc(C)nc3)cc12 [Compound 483, (1R,3S,5R)-2-(2-(3-acetyl-2-methyl-5-(2-methylpyrimidin-5-yl)-1H-indol-1-yl)acetyl)-N-(6-bromo-3-methylpyridin-2-yl)-5-methyl-2-azabicyclo[3.1.0]hexane-3-carboxamide]	< 1
CC(=O)c1nn(CC(=O)N2[C@H](C(=O)Nc3nc(Br)c(F)cc3C)C[C@@]3(Cc4nnc(C)o4)C[C@@H]23)c2c(C)cc(-c3cnc(C)nc3)cc12 [Compound 484, (1R,3S,5R)-2-(2-(3-acetyl-7-methyl-5-(2-methylpyrimidin-5-yl)-1H-indazol-1-yl)acetyl)-N-(6-bromo-5-fluoro-3-methylpyridin-2-yl)-5-((5-methyl-1,3,4-oxadiazol-2-yl)methyl)-2-azabicyclo[3.1.0]hexane-3-carboxamide]	< 1
CC(=O)c1nn(CC(=O)N2[C@H](C(=O)Nc3nc(Br)c(F)cc3C)C[C@@]3(Cc4nnc(C)o4)C[C@@H]23)c2c(C)nc(-c3cnc(C)nc3)cc12 [Compound 485, (1R,3S,5R)-2-(2-(3-acetyl-7-methyl-5-(2-methylpyrimidin-5-yl)-1H-pyrazolo[3,4-c]pyridin-1-yl)acetyl)-N-(6-bromo-5-fluoro-3-methylpyridin-2-yl)-5-((5-methyl-1,3,4-oxadiazol-2-yl)methyl)-2-azabicyclo[3.1.0]hexane-3-carboxamide]	< 1
CC(=O)c1nn(CC(=O)N2[C@H](C(=O)Nc3nc(Br)ccc3Cl)C[C@@]3(Cc4nnc(C)o4)C[C@@H]23)c2c(C)cc(-c3cnc(C)nc3)cc12 [Compound 486, (1R,3S,5R)-2-(2-(3-acetyl-7-methyl-5-(2-methylpyrimidin-5-yl)-1H-indazol-1-yl)acetyl)-N-(6-bromo-3-chloropyridin-2-yl)-5-((5-methyl-1,3,4-oxadiazol-2-yl)methyl)-2-azabicyclo[3.1.0]hexane-3-carboxamide]	< 1
CCCNC(=O)c1nn(CC(=O)N2[C@H](C(=O)NCCC)C[C@@]3(C)C[C@@H]23)c2ccc(-c3cnc(C)nc3)cc12 [Compound 487, 1-(2-((1R,3S,5R)-5-methyl-3-(propylcarbamoyl)-2-azabicyclo[3.1.0]hexan-2-yl)-2-oxoethyl)-5-(2-methylpyrimidin-5-yl)-N-propyl-1H-indazole-3-carboxamide]	1 to 10
CCCCNC(=O)[C@@H]1C[C@@]2(C)C[C@H]2N1C(=O)Cn1nc(C(C)=O)c2cc(-c3cnc(C)nc3)ccc21 [Compound 488, (1R,3S,5R)-2-(2-(3-acetyl-5-(2-methylpyrimidin-5-yl)-1H-indazol-1-yl)acetyl)-N-butyl-5-methyl-2-azabicyclo[3.1.0]hexane-3-carboxamide]	< 1

Same assay, conditions: Table 8; Factor D 80 nM, substrate Z-L-Lys-SBz; read-out: IC50

SMILES	IC50 [µM]
CCCNC(=O)c1nn(CC(=O)N2[C@H](C(=O)Nc3nc(Br)ccc3C)C[C@@]3(C)C[C@@H]23)c2ccc(-c3cnc(C)nc3)cc12 [Compound 475]	< 1
CCCCNC(=O)c1nn(CC(=O)N2[C@H](C(=O)Nc3nc(Br)ccc3C)C[C@@]3(C)C[C@@H]23)c2ccc(-c3cnc(C)nc3)cc12 [Compound 476]	< 1
CCCCCNC(=O)c1nn(CC(=O)N2[C@H](C(=O)Nc3nc(Br)ccc3C)C[C@@]3(C)C[C@@H]23)c2ccc(-c3cnc(C)nc3)cc12 [Compound 477, 1-(2-((1R,3S,5R)-3-((6-bromo-3-methylpyridin-2-yl)carbamoyl)-5-methyl-2-azabicyclo[3.1.0]hexan-2-yl)-2-oxoethyl)-5-(2-methylpyrimidin-5-yl)-N-pentyl-1H-indazole-3-carboxamide]	> 10
Cc1ncc(-c2ccc3c(c2)c(C(=O)NCC2CC2)nn3CC(=O)N2[C@H](C(=O)Nc3nc(Br)ccc3C)C[C@@]3(C)C[C@@H]23)cn1 [Compound 478, 1-(2-((1R,3S,5R)-3-((6-bromo-3-methylpyridin-2-yl)carbamoyl)-5-methyl-2-azabicyclo[3.1.0]hexan-2-yl)-2-oxoethyl)-N-(cyclopropylmethyl)-5-(2-methylpyrimidin-5-yl)-1H-indazole-3-carboxamide]	< 1
Cc1ncc(-c2ccc3c(c2)c(C(=O)NCC2CCC2)nn3CC(=O)N2[C@H](C(=O)Nc3nc(Br)ccc3C)C[C@@]3(C)C[C@@H]23)cn1 [Compound 479]	1 to 10
Cc1ncc(-c2ccc3c(c2)c(C(=O)NCC(C)(C)C)nn3CC(=O)N2[C@H](C(=O)Nc3nc(Br)ccc3C)C[C@@]3(C)C[C@@H]23)cn1 [Compound 480]	> 10
Cc1ncc(-c2ccc3c(c2)c(C(=O)NCCN)nn3CC(=O)N2[C@H](C(=O)Nc3nc(Br)ccc3C)C[C@@]3(C)C[C@@H]23)cn1 [Compound 489, N-(2-aminoethyl)-1-(2-((1R,3S,5R)-3-((6-bromo-3-methylpyridin-2-yl)carbamoyl)-5-methyl-2-azabicyclo[3.1.0]hexan-2-yl)-2-oxoethyl)-5-(2-methylpyrimidin-5-yl)-1H-indazole-3-carboxamide]	1 to 10
